The test system of one test is platelets. The experiment in a line: effect of antiplatelet compounds on DOX-induced platelet aggregation. The class given is cell-based. The note with it: reagent at recommended concentration.
A further test concerns HepG2 cells. In words: receptor mediated binding between CPP or FPH and HepG2 cells with inhibitors / blocking mabs. The class given is cell-based, human. Conditions: inhibitor / blocking mab tested, Table 7. The protocol: Receptor mediated binding between CPP or FPH with HepG2 cells was investigated by inhibiting either a platelet receptor or a HepG2 receptor. Pooled apheresis platelets were incubated with 50 μM CFDA-Se for 60 minutes at room temperature then acidified to pH of 6.6-6.8 with citric acid. CPP and FPH were then created as disclosed in Example 1 but without doxorubicin. Untreated HepG2 cells served as negative control groups. HepG2 cells were seeded at a density of 10^5 cells in a 12-well plate (NuncTM Cell-Culture Treated Multidishes, catalog no: 150628) After incubation for 24 hours, the original medium was […] hours with fresh 0.5% FBS DMEM (ATCC-formulated Eagle's Minimum Essential Medium, catalog No. 30-2003). To determine the effect of platelet receptor inhibition on the binding between CPP/FPH and HepG2 cells first both CPP and FPH were incubated with tirofiban to block the GpIIb/IIIa receptor. Then the HepG2 cells were supplemented with tirofiban treated CPP, tirofiban treated FPH, untreated CPP, or untreated FPH at an equivalent platelet count of 0.3×10^6 platelets/μl. The cells were then washed with cold PBS three times, harvested by a scraper, and then suspended in PBS. The fluorescence intensity was determined by flow cytometry with the FITC channel. Approximately 10,0000 events for each sample was measured to assess the surface binding between the HepG2 cells and tirofiban treated CPP or FPH. To determine the effect of HepG2 receptor inhibition on the binding between CPP/FPH and HepG2 cells, first HepG2 cells were treated with either anti-podoplanin blocking monoclonal antibody or phagocytosis (wortmannin) inhibitor for 30 minutes. Then the HepG2 cells were incubated with either CPP or FPH. The HepG2 cells were washed with cold PBS three times, harvested by a scraper, and then suspended in PBS. The fluorescence intensity was determined by flow cytometry with the FITC channel. Approximately 10,0000 events for each sample was measured to assess the surface binding between the HepG2 cells CPP or FPH. […]

A further test has as its target GPIIb/IIIa (Homo sapiens, UniProt P05106+P08514). Conditions: printed as recommended concentration; source PMID: 9700979; cited from earlier work.

Broadly, the IC50 is the concentration at which inhibition is half-maximal.

Sequence of GPIIb/IIIa (P08514 32-887 limits assumed): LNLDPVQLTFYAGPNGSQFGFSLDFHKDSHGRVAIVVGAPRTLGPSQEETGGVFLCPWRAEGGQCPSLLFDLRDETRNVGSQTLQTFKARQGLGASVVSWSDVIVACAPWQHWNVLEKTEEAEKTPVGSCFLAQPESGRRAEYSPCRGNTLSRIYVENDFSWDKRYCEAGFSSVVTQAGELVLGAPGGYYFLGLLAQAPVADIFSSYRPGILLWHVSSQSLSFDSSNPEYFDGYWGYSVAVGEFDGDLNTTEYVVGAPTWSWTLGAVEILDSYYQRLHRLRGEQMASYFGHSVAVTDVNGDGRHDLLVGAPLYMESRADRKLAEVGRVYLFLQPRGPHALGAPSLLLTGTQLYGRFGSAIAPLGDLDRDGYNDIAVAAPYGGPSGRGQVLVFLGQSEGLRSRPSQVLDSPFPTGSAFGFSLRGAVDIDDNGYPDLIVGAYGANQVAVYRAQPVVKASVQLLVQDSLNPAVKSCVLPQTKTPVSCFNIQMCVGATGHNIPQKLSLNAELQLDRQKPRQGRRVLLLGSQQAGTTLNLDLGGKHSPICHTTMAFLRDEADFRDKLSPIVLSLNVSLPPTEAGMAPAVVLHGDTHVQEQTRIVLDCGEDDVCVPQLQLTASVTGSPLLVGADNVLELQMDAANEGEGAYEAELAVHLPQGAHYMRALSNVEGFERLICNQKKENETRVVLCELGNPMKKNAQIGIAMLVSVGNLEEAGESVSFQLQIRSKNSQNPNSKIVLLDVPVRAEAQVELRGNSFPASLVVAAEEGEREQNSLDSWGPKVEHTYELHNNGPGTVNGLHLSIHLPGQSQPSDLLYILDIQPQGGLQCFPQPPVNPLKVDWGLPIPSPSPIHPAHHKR
Sequence of GPIIb/IIIa (P08514 891-1039 partner limits assumed): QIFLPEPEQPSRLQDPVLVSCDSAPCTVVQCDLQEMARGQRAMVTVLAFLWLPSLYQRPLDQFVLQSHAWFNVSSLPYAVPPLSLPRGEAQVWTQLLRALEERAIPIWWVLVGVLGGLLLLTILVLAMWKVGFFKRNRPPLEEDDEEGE
Sequence of GPIIb/IIIa (P05106 27-788): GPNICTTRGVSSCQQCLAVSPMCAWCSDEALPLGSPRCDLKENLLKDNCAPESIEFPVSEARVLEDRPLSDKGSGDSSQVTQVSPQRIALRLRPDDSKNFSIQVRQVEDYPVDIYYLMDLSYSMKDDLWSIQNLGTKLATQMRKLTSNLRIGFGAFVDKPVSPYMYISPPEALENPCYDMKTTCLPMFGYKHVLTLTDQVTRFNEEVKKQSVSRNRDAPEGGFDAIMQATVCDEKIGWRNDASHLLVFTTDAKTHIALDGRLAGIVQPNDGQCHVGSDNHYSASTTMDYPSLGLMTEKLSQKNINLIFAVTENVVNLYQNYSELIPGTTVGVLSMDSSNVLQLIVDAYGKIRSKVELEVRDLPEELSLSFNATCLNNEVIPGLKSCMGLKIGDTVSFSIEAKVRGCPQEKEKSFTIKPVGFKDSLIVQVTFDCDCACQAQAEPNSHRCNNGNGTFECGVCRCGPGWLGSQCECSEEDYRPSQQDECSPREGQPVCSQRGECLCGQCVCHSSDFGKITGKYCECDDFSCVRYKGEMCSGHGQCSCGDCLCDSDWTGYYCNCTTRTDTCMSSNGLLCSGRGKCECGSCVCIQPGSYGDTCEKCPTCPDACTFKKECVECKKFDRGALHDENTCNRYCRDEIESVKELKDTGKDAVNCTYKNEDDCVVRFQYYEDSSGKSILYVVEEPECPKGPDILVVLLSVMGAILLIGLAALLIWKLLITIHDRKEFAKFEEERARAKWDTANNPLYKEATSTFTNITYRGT

Consider `CC(=O)Oc1ccccc1C(=O)O` [Aspirin (ASA), Aspirin], for which the “Max Platelet Count (Normalized to Untreated)” value was 52% with platelets (0.5 mg/mL DOX) and 15% with platelets (1 mg/mL DOX).

In the case of `CSCCNc1nc(SCCC(F)(F)F)nc2c1ncn2[C@@H]1O[C@H](COP(=O)(O)OP(=O)(O)C(Cl)(Cl)P(=O)(O)O)[C@@H](O)[C@H]1O` [Cangrelor], the figures for the “Max Platelet Count (Normalized to Untreated)” value in the test on platelets (0.5 mg/mL DOX) and in the test with platelets (1 mg/mL DOX) were 47% and 26%, respectively.

Consider `CN(C)CCCN1c2ccccc2Sc2ccc(Cl)cc21` [Chlorpromazine], for which, in the test with HepG2 cells, the “change of CPP/FPH binding to HepG2 cells in comparison to control” value (“change of CPP/FPH binding to HepG2 cells” below) is given as “No Significance”.

`COC(=O)/C=C1/SC(=NC(=O)c2ccc(Cl)cc2Cl)N(c2ccc(Cl)cc2)C1=O` [FR171113]: the “Max Platelet Count (Normalized to Untreated)” value worked out at 51% in the test on platelets (0.5 mg/mL DOX) and 16% in the test on platelets (1 mg/mL DOX).

For `Cl.Cl.Cl.N=C(N)c1ccc(N2CCN(C3CCN(CC(=O)O)CC3)CC2)cc1` [GR144053], the IC50 at GPIIb/IIIa was 37 nM. Besides, the entries for the “Max Platelet Count (Normalized to Untreated)” value in the test on platelets (0.5 mg/mL DOX) and in the test on platelets (1 mg/mL DOX) were 83% and 42%, respectively.

For `O=c1c(-c2ccc(O)cc2)coc2cc(O)cc(O)c12` [Genistein], the “change of CPP/FPH binding to HepG2 cells” value with HepG2 cells is on record as “No Significance”.

As to `CSc1nc(N)c2ncn([C@@H]3O[C@H](COP(=O)(O)OP(=O)(O)O)[C@@H](O)[C@H]3O)c2n1` [MeSADP], the entries for the “Max Platelet Count (Normalized to Untreated)” value in the test on platelets (0.5 mg/mL DOX) and in the test with platelets (1 mg/mL DOX) were 33% and 10%, respectively.

Turning to `CC1(C)CC(NC(=O)C[P+](c2ccccc2)(c2ccccc2)c2ccccc2)CC(C)(C)N1[O]` [MitoTEMPO], the “Max Platelet Count (Normalized to Untreated)” value with platelets (1.2 mM DOX) is given as 37%.

Take `CC(=O)N[C@@H](CS)C(=O)O` [N-Acetylcysteine]: the “Max Platelet Count (Normalized to Untreated)” value with platelets (0.6 mM DOX) was 73%.

`Nc1c(S(=O)(=O)O)cc(Nc2ccc(Nc3ccccc3)c(S(=O)(=O)O)c2)c2c1C(=O)c1ccccc1C2=O` [PSB 0739]: the figures for the “Max Platelet Count (Normalized to Untreated)” value in the test with platelets (0.5 mg/mL DOX) and in the test on platelets (1 mg/mL DOX) were 26% and 18%, respectively.

As to `CCCCS(=O)(=O)N[C@@H](Cc1ccc(OCCCCC2CCNCC2)cc1)C(=O)O` [Tirofiban], the “change of CPP/FPH binding to HepG2 cells” value with HepG2 cells is “Significance”. Besides, in the test on platelets (0.6 mM DOX), the “Max Platelet Count (Normalized to Untreated)” value came to 73%.
